In brackets after ≈: the same amount, converted by molar mass. Read-outs that look alike come from different tables or passages of the source.
How the values were obtained:
E. coli (ESCCOL) strains = experiment: MIC assays of CTX, CCX, CAZ, CCZ, microbroth dilution (CLSI); assay type: cell-based; conditions: Escherichia coli
Procedure: (§1) MIC Assays of CTX (cefotaxime), […] (cefotaxime/clavulanic acid), CAZ (ceftazidime) and CCZ (ceftazidime/clavulanic acid) were performed by microbroth dilution method according to the CLSI (Clinical and Laboratory Standards Institute) standard.

[1] = test system: Klebsiella pneumoniae (KLEPNEP) strains; experiment: as above; assay type: cell-based
Procedure: as §1

E. coli strains [2] = experiment: Cefoxitin MIC assay, microbroth dilution (CLSI); assay type: cell-based
Procedure: Cefoxitin MIC Assay were performed by microbroth dilution method according to the CLSI (Clinical and Laboratory Standards Institute) standard.

E. coli strains [3] = experiment: Imipenem MIC assay, microbroth dilution (CLSI); assay type: cell-based; conditions: Escherichia coli
Procedure: (§2) Imipenem MIC Assay was performed by microbroth dilution method according to the CLSI (Clinical and Laboratory Standards Institute) standard.

[4] = test system: Klebsiella oxytoca strains; experiment: Imipenem MIC assay, microbroth dilution (CLSI); assay type: cell-based
Procedure: as §2

[5] = test system: Klebsiella pneumoniae strains; experiment: Imipenem MIC assay, microbroth dilution (CLSI); assay type: cell-based; conditions: for MIC: Klebsiella pneumoniae
Procedure: as §2
(§3) Imipenem MIC Assay were performed by microbroth dilution method according to the CLSI (Clinical and Laboratory Standards Institute) standard.

[6] = test system: Pseudomonas aeruginosa (PSEAER) strains; experiment: Imipenem MIC assay, microbroth dilution (CLSI); assay type: cell-based; conditions: PSEAER strain 6 of Table 16 (MBL)
Procedure: as §3

E. coli strains [7] = experiment: Lysis testing on Phoenix panel, nitrocefin hydrolysis rate; assay type: cell-based; design: unit not given here; conditions: without vs with lysis reagent
Procedure: (§4) Stock solutions with nitrocefin, trehalose, and/or reagents used to lyse the bacterial cells in pH6 MES buffer were prepared and dispensed into wells on the bottom part of Phoenix™ panel (BD, USA), with one stock solution in one well. Panels were then dried in an oven for approximately 30 min at approximately 70° C. The top part of Phoenix panel was then attached to the bottom part forming a panel system ready for inoculation. The concentrations of reagents after rehydration following Phoenix panel inoculation were 3 mg/ml lysozyme, 1 mM EDTA, and 1% trehalose in 0.1M pH6 MES buffer.
(§5) Representative strains of bacteria, such as E. coli and Klebsiella pneumoniae, were each streaked on a Trypticase™ Soy Agar with 5% Sheep Blood agar plate (BD, USA) and the plates were incubated at 35° C. for 18 hours. Afterwards, colonies from pure culture on each plate were inoculated into BD Phoenix ID broth (BD, USA) and adjusted to a desired turbidity of approximately 0.5 MacFarland. The bacterial cell suspension was then poured into the ID side of the Phoenix panels that were specifically made for cell lysis testing. Once inoculated, the panel was loaded into Phoenix instrument, where nitrocefin hydrolysis rate was monitored by colorimetric signals changes every 20 minutes for 16 hours.

[8] = test system: Klebsiella pneumoniae strains; experiment: as above; assay type: cell-based; design: unit not given here; conditions: without vs with lysis reagent
Procedure: as §4, §5

ESBLs = experiment: Beta-lactamase inhibition at certain concentrations; assay type: biochemical
[9] = test system: original-spectrum beta-lactamases (OSBLs); experiment: as above; assay type: biochemical
class A beta-lactamases = experiment: as above; assay type: biochemical
class C beta-lactamases = experiment: as above; assay type: biochemical
[10] = ESCCOL strain 2 of Table 20 (ESBL), read-out: MIC
[11] = ESCCOL strain 3 of Table 20 (OSBL), read-out: MIC
[12] = ESCCOL strain 4 of Table 20 (OSBL), read-out: MIC
[13] = ESCCOL strain 5 of Table 20 (WT), read-out: MIC
[14] = KLEPNEP strain 7 of Table 20 (ESBL), read-out: MIC
[15] = KLEPNEP strain 8 of Table 20 (OSBL), read-out: MIC
[16] = KLEPNEP strain 9 of Table 20 (OSBL), read-out: MIC
[17] = KLEPNEP strain 10 of Table 20 (WT), read-out: MIC

For `CC(C)(O/N=C(\C(=O)N[C@@H]1C(=O)N2C(C(=O)[O-])=C(C[n+]3ccccc3)CS[C@H]12)c1csc(N)n1)C(=O)O` [CAZ, ceftazidime], the MIC (E. coli (ESCCOL) strains) was over 128 µg/mL, the MIC (E. coli (ESCCOL) strains; [10]) was 16 µg/mL (≈ 29.3 µM) and the MIC (E. coli (ESCCOL) strains; [11]) was at most 0.25 µg/mL. It also gave an MIC (E. coli (ESCCOL) strains; [12]) of at most 0.25 µg/mL, an MIC (E. coli (ESCCOL) strains; [13]) of at most 0.25 µg/mL and an MIC [1] of over 128 µg/mL. It also gave an MIC [1, 14] of 8 µg/mL (≈ 14.6 µM), an MIC [1, 15] of at most 0.25 µg/mL and an MIC [1, 16] of at most 0.25 µg/mL. It also gave an MIC [1, 17] of at most 0.25 µg/mL.

For `CO/N=C(\C(=O)N[C@@H]1C(=O)N2C(C(=O)O)=C(COC(C)=O)CS[C@H]12)c1csc(N)n1` [CTX, cefotaxime], the MIC (E. coli (ESCCOL) strains; ESCCOL strain 1 of Table 20 (ESBL), read-out: MIC) was 32 µg/mL (≈ 70.3 µM), the MIC (E. coli (ESCCOL) strains; [10]) was over 64 µg/mL and the MIC (E. coli (ESCCOL) strains; [11]) was at most 0.25 µg/mL. For the same molecule, the MIC (E. coli (ESCCOL) strains; [12]) was at most 0.25 µg/mL, the MIC (E. coli (ESCCOL) strains; [13]) was at most 0.25 µg/mL and the MIC ([1]; KLEPNEP strain 6 of Table 20 (ESBL), read-out: MIC) was over 64 µg/mL. The MIC [1, 14] was over 64 µg/mL, the MIC [1, 15] was at most 0.25 µg/mL and the MIC [1, 16] was at most 0.25 µg/mL. For the same molecule, the MIC [1, 17] was 0.5 µg/mL (≈ 1.1 µM).

Work on `CO[C@@]1(NC(=O)Cc2cccs2)C(=O)N2C(C(=O)O)=C(COC(N)=O)CS[C@@H]21` [Cefoxitin] yielded a Cefoxitin MIC (E. coli strains [2]; E. coli strain 1 of Table 18 (WT)) of at most 4 µg/mL, a Cefoxitin MIC (E. coli strains [2]; E. coli strain 2 of Table 18 (OSBL, C-plasmid)) of over 32 µg/mL and a Cefoxitin MIC (E. coli strains [2]; E. coli strain 3 of Table 18 (OSBL, C-chromo)) of over 32 µg/mL. For the same molecule, the Cefoxitin MIC (E. coli strains [2]; E. coli strain 4 of Table 18 (OSBL)) was 32 µg/mL, the Cefoxitin MIC (E. coli strains [2]; E. coli strain 5 of Table 18 (ESBL, C-plasmid)) was over 32 µg/mL and the “Cefoxitin MIC” value (E. coli strains [2]; E. coli strain 6 of Table 18 (ESBL, C-chromo)) was “=32”. The “Cefoxitin MIC” value (E. coli strains [2]; E. coli strain 7 of Table 18 (ESBL)) was “=8”, the Cefoxitin MIC (E. coli strains [2]; E. coli strain 8 of Table 18 (C-chromo)) was over 32 µg/mL and the Cefoxitin MIC (E. coli strains [2]; E. coli strain 9 of Table 18 (Carbapenemase)) was over 32 µg/mL. It also gave a Cefoxitin MIC (E. coli strains [2]; E. coli strain 10 of Table 18 (C-plasmid)) of over 32 µg/mL and a Cefoxitin MIC (E. coli strains [2]; E. coli strain 11 of Table 18 (OSBL, C-plasmid)) of over 32 µg/mL.

`C[C@@H](O)[C@H]1C(=O)N2C(C(=O)O)=C(SCCN=CN)C[C@H]12` [Imipenem] was tested, and the MIC (E. coli strains [3]; E. coli strain 1 of Table 8 (C-chromo)) was at most 2 µg/mL, the MIC (E. coli strains [3]; E. coli strain 3 of Table 8 (Carb (KPC))) was 16 µg/mL (≈ 53.4 µM) and the MIC (E. coli strains [3]; E. coli strain 4 of Table 8 (ESBL, C-chromo)) was at most 2 µg/mL. The MIC (E. coli strains [3]; E. coli strain 5 of Table 8 (IRT, C-chromo)) was at most 2 µg/mL, the MIC (E. coli strains [3]; E. coli strain 6 of Table 8 (OSBL, Carb)) was 8 µg/mL (≈ 26.7 µM) and the MIC (E. coli strains [3]; E. coli strain 8 of Table 8 (WT)) was at most 0.25 µg/mL. For the same molecule, the MIC (E. coli strains [3]; E. coli strain 9 of Table 8 (WT)) was at most 2 µg/mL, the MIC (E. coli strains [3]; E. coli strain 10 of Table 8 (OSBL, C-chromo)) was at most 2 µg/mL and the MIC (E. coli strains [3]; E. coli strain 11 of Table 8 (ESBL, C)) was at most 2 µg/mL. It also gave an Imipenem MIC ([4]; Klebsiella oxytoca strain 1 of Table 12 (K1-high)) of at most 2 µg/mL, an Imipenem MIC ([4]; Klebsiella oxytoca strain 2 of Table 12 (OSBL, K1-high)) of at most 2 µg/mL and an Imipenem MIC ([4]; Klebsiella oxytoca strain 3 of Table 12 (OSBL, K1-high, Carb)) of over 16 µg/mL. For the same molecule, the Imipenem MIC ([4]; Klebsiella oxytoca strain 4 of Table 12 (WT)) was at most 2 µg/mL, the Imipenem MIC ([5]; KLEPENEP strain 5 of Table 16 (WT)) was at most 2 µg/mL and the “Imipenem MIC” value ([5]; KLEPNEP strain 1 of Table 14 (ESBL, MBL)) was “= 4”. For the same molecule, the Imipenem MIC ([5]; KLEPNEP strain 1 of Table 16 (ESBL, MBL)) was 4 µg/mL, the Imipenem MIC ([5]; KLEPNEP strain 2 of Table 14 (WT)) was at most 2 µg/mL and the Imipenem MIC ([5]; KLEPNEP strain 2 of Table 16 (MBL)) was over 16 µg/mL. The Imipenem MIC ([5]; KLEPNEP strain 3 of Table 14 (OSBL, Carbapenemase)) was over 16 µg/mL, the “Imipenem MIC” value ([5]; KLEPNEP strain 3 of Table 16 (ESBL, Carbapenemase)) was “= 8” and the Imipenem MIC ([5]; KLEPNEP strain 4 of Table 14 (ESBL, C-plasmid)) was at most 2 µg/mL. The Imipenem MIC ([5]; KLEPNEP strain 4 of Table 16 (ESBL, C-plasmid)) was at most 2 µg/mL, the “Imipenem MIC” value ([5]; Klebsiella pneumoniae strain 1 of Table 10 (C-plasmid)) was “<=2 μg/ml” and the “Imipenem MIC” value ([5]; Klebsiella pneumoniae strain 6 of Table 10 (ESBL, C-plasmid)) was “<=2 μg/ml”. For the same molecule, the “Imipenem MIC” value ([5]; Klebsiella pneumoniae strain 8 of Table 10 (OSBL, C-plasmid)) was “<=2 μg/ml”, the “Imipenem MIC” value ([5]; Klebsiella pneumoniae strain 11 of Table 10 (OSBL, C-plasmid)) was “<=2 μg/ml” and the “Imipenem MIC” value ([5]; Klebsiella pneumoniae strain 14 of Table 10 (ESBL, C-plasmid)) was “<=2 μg/ml”. The MIC ([5]; Klebsiella pneumoniae strain 2 of Table 10 (ESBL, MBL)) was 4 µg/mL (≈ 13.4 µM), the MIC ([5]; Klebsiella pneumoniae strain 3 of Table 10 (ESBL, C)) was at most 2 µg/mL and the MIC ([5]; Klebsiella pneumoniae strain 4 of Table 10 (ESBL, Carb (KPC))) was 8 µg/mL (≈ 26.7 µM). It also gave an MIC ([5]; Klebsiella pneumoniae strain 7 of Table 10 (WT)) of at most 2 µg/mL, an MIC ([5]; Klebsiella pneumoniae strain 9 of Table 10 (OSBL, carb)) of over 16 µg/mL and an MIC ([5]; Klebsiella pneumoniae strain 10 of Table 10 (WT)) of at most 2 µg/mL. For the same molecule, the MIC ([5]; Klebsiella pneumoniae strain 12 of Table 10 (MBL)) was over 16 µg/mL, the MIC ([5]; Klebsiella pneumoniae strain 13 of Table 10 (ESBL, MBL)) was 4 µg/mL (≈ 13.4 µM) and the MIC ([5]; Klebsiella pneumoniae strain 15 of Table 10 (Carb(KPC))) was 8 µg/mL (≈ 26.7 µM). For the same molecule, the MIC ([5]; Klebsiella pneumoniae strain 16 of Table 10 (ESBL, Carb(KPC))) was 8 µg/mL (≈ 26.7 µM) and the Imipenem MIC [6] was over 16 µg/mL.

For `O=C(Cc1cccs1)N[C@@H]1C(=O)N2C(C(=O)O)=C(/C=C/c3ccc([N+](=O)[O-])cc3[N+](=O)[O-])CS[C@H]12` [NCF, 3-[2,4-dinitrostyryl]-7-(2-thienylacetamido]3-cephem-4-carobxylic acid], the “NCF activity (maximum nitrocefin hydrolysis rate within 10 hrs)” value (shortened to “NCF activity”) (E. coli strains [7]; E. coli sample 1, intracellular beta-lactamase +) was 1.9, the “NCF activity” value (E. coli strains [7]; E. coli sample 2, intracellular beta-lactamase +) was 2.1 and the “NCF activity” value (E. coli strains [7]; E. coli sample 3, intracellular beta-lactamase +) was 2.3. For the same molecule, the “NCF activity” value (E. coli strains [7]; E. coli sample 4, intracellular beta-lactamase +) was 1.9, the “NCF activity” value (E. coli strains [7]; E. coli sample 5, intracellular beta-lactamase +) was 8.2 and the “NCF activity” value (E. coli strains [7]; E. coli sample 6, intracellular beta-lactamase +) was 7.2. For the same molecule, the “NCF activity” value (E. coli strains [7]; E. coli sample 7, intracellular beta-lactamase +) was 6.8, the “NCF activity” value (E. coli strains [7]; E. coli sample 8, intracellular beta-lactamase −) was 1.7 and the “NCF activity” value ([8]; Klebsiella pneumoniae sample 9, intracellular beta-lactamase +) was 1.3. For the same molecule, the “NCF activity” value ([8]; Klebsiella pneumoniae sample 10, intracellular beta-lactamase +) was 3.3, the “NCF activity” value ([8]; Klebsiella pneumoniae sample 11, intracellular beta-lactamase +) was 3.9 and the “NCF activity” value ([8]; Klebsiella pneumoniae sample 12, intracellular beta-lactamase +) was 2.6. The “NCF activity” value ([8]; Klebsiella pneumoniae sample 13, intracellular beta-lactamase +) was 6.7, the “NCF activity” value ([8]; Klebsiella pneumoniae sample 14, intracellular beta-lactamase +) was 7.5 and the “NCF activity” value ([8]; Klebsiella pneumoniae sample 15, intracellular beta-lactamase +) was 9.1. The “NCF activity” value ([8]; Klebsiella pneumoniae sample 16, intracellular beta-lactamase −) was 1.2.

For `O=C(O)[C@H]1/C(=C/CO)O[C@@H]2CC(=O)N21` [clavulanic acid], the “inhibition of ESBLs” value (ESBLs) was “inhibits” and the “inhibition of OSBLs” value [9] was “inhibits”.

With `Cc1onc(-c2ccccc2Cl)c1C(=O)N[C@@H]1C(=O)N2[C@@H]1SC(C)(C)[C@@H]2C(=O)O` [cloxacillin] the “inhibition of class A beta-lactamases” value (class A beta-lactamases) was “inhibits” and the “inhibition of class C beta-lactamases” value (class C beta-lactamases) was “inhibits”.

From patent US10704079B2, “Methods for the detection of beta-lactamases in a sample” (priority 2007, dated 2020)
